The results in this text go back to patent US20200207759A1, “NEW PROPANAMINE DERIVATIVES FOR TREATING PAIN AND PAIN RELATED CONDITIONS” (ESTEVE PHARMACEUTICALS, S.A., priority 2017, published 2020).

The target in test [1] is Human norepinephrine transporter (NET) (Homo sapiens, UniProt P23975). Kind of test: Binding assay to human norepinephrine transporter (NET), [3H]-Nisoxetin. As to conditions: human NET enriched membranes, 5 nM [3H]-Nisoxetin; read-out: Ki (nM) NET Hum. The protocol: Binding Assay to Human Norepinephrine Transporter (NET).
Human norepinephrine transporter (NET) enriched membranes (5 μg) were incubated with 5 nM of radiolabeled [3H]-Nisoxetin in assay buffer containing 50 mM Tris-HCl, 120 mM NaCl, 5 mM KCl, pH 7.4.
NSB (non specific binding) was measured by adding 1 μM. After 60 min incubation at 4° C., binding reaction was terminated by filtering through Multiscreen GF/C (Millipore) presoaked in 0.5% polyethyleneimine in Vacuum Manifold Station, followed by 3 washes with ice-cold filtration buffer containing 50 mM Tris-HCl, 0.9% NaCl, pH 7.4. Filter plates were dried at 60° C. for 1 hour and 30 μl of scintillation cocktail were added to each well before radioactivity reading.

For test [2], the target named is Human α2δ-1 subunit of Cav2.2 calcium channel (Homo sapiens, UniProt P54289). Kind of test: Binding assay to human α2δ-1 subunit of Cav2.2 calcium channel, [3H]-Gabapentin. As to conditions: human α2δ-1 enriched membranes, 15 nM [3H]-Gabapentin; read-out: Ki (nM) alpha2delta Hum. The protocol: Binding Assay to Human α2δ-1 Subunit of Cav2.2 Calcium Channel.
Human α2δ-1 enriched membranes (2.5 μg) were incubated with 15 nM of radiolabeled [3H]-Gabapentin in assay buffer containing Hepes-KOH 10 mM, pH 7.4.
NSB (non specific binding) was measured by adding 10 μM pregabalin. After 60 min incubation at 27° C., binding reaction was terminated by filtering through Multiscreen GF/C (Millipore) presoaked in 0.5% polyethyleneimine in Vacuum Manifold Station, followed by 3 washes with ice-cold filtration buffer containing 50 mM Tris-HCl, pH 7.4.
Filter plates were dried at 60° C. for 1 hour and 30 μl of scintillation cocktail were added to each well before radioactivity reading.
Readings were performed in a Trilux 1450 Microbeta radioactive counter (Perkin Elmer).

Chain of Human α2δ-1 subunit of Cav2.2 calcium channel (P54289 25-1103): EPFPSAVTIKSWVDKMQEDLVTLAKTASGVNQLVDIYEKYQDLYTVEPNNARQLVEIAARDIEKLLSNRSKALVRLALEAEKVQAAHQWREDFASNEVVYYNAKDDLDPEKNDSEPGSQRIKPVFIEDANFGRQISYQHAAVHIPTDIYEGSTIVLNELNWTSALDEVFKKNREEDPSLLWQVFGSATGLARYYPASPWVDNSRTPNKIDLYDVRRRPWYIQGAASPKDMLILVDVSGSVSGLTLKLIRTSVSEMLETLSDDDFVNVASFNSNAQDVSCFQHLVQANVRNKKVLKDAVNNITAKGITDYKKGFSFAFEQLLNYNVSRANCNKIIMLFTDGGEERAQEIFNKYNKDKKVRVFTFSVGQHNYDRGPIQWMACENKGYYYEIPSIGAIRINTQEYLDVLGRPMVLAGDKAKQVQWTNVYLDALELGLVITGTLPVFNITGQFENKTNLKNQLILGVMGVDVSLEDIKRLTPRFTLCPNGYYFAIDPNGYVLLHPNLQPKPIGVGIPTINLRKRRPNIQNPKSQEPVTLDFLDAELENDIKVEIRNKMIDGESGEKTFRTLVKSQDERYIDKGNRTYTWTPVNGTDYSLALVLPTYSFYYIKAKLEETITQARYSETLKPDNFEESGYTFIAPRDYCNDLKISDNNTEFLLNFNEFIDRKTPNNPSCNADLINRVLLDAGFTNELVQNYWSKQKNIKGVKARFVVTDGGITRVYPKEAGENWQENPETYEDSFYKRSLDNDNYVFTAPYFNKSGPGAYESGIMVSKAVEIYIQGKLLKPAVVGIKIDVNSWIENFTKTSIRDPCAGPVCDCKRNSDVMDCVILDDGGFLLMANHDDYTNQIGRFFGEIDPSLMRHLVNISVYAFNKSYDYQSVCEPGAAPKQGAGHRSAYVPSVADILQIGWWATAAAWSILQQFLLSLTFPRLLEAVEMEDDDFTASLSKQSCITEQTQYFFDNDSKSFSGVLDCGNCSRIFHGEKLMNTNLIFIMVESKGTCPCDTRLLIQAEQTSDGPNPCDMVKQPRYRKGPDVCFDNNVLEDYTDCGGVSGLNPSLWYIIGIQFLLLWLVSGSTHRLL
Chain of Human norepinephrine transporter (NET) (P23975 whole entry): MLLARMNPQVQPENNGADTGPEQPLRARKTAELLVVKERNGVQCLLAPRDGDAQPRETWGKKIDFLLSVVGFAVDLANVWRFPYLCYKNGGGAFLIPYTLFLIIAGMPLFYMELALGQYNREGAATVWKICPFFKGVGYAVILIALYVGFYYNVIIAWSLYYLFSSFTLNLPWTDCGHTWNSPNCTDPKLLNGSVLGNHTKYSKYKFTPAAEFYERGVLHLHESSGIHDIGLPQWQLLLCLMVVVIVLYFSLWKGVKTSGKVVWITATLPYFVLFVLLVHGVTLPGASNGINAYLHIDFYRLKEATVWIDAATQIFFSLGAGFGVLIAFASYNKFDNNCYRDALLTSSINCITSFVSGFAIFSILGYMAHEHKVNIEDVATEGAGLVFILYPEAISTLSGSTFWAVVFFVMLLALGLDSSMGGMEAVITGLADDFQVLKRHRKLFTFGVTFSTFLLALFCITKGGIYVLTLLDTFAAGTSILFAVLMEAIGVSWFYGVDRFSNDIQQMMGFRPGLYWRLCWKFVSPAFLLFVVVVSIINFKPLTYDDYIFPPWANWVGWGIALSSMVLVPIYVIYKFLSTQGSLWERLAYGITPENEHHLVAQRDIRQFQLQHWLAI

Regarding `CNCCC(c1ccsc1)N1CC(C)(C)c2ncc(F)cc21` (stereo not drawn) [Example 65, 3-(6-Fluoro-3,3-dimethyl-2,3-dihydro-1H-pyrrolo[3,2-b]pyridin-1-yl)-N-methyl-3-(thiophen-3-yl)propan-1-amine], the results for the Ki in test [1] and in test [2] were more than 1000 nM and less than 100 nM, respectively.

As for `CNCC[C@H](c1ccsc1)N1CCc2ncc(C)cc21` [Example 103, (R)—N-methyl-3-(6-methyl-2,3-dihydro-1H-pyrrolo[3,2-b]pyridin-1-yl)-3-(thiophen-3-yl)propan-1-amine], the Ki in test [1] is more than 1000 nM; in test [2] it was 100 to 500 nM.

In the case of `CNCC[C@@H](c1ccc(F)s1)N1CCc2ncccc21` [Example 19, (S)-3-(2,3-dihydro-1H-pyrrolo[3,2-b]pyridin-1-yl)-3-(5-fluorothiophen-2-yl)-N-methylpropan-1-amine], the Ki in test [1] lay within 500 to 1000 nM; in test [2] it was 100 to 500 nM.

In the case of `CNCCC(c1cccs1)N1CC(C)(C)c2ncccc21` (stereo not drawn) [Example 12, 3-(3,3-Dimethyl-2,3-dihydro-1H-pyrrolo[3,2-b]pyridin-1-yl)-N-methyl-3-(thiophen-2-yl)propan-1-amine], the Ki was 500 to 1000 nM in test [1] and 100 to 500 nM in test [2].

On to `CNCCC(c1cccs1)N1CC(C)(C)c2ccc(C#N)cc21` (stereo not drawn) [Example 92, 3,3-Dimethyl-1-(3-(methylamino)-1-(thiophen-2-yl)propyl)indoline-6-carbonitrile], for which the Ki is more than 1000 nM in test [1] and 100 to 500 nM in test [2].

As for `CNCCC(c1cccs1)N1CC(C)(C)c2ncc(F)cc21` (stereo not drawn) [Example 66, 3-(6-Fluoro-3,3-dimethyl-2,3-dihydro-1H-pyrrolo[3,2-b]pyridin-1-yl)-N-methyl-3-(thiophen-2-yl)propan-1-amine], the Ki in test [1] is more than 1000 nM; in test [2], 100 to 500 nM.

Regarding `CCc1cnc2c(c1)N([C@H](CCNC)c1ccsc1)CC2` [Example 76, (R)-3-(6-Ethyl-2,3-dihydro-1H-pyrrolo[3,2-b]pyridin-1-yl)-N-methyl-3-(thiophen-3-yl)propan-1-amine], the Ki in test [1] and in test [2] was 100 to 500 nM each time.

On to `CNCC[C@H](c1cccs1)N1CC(C)(C)c2nc(C)ccc21` [Example 34, (R)-N-methyl-3-(thiophen-2-yl)-3-(3,3,5-trimethyl-2,3-dihydro-1H-pyrrolo[3,2-b]pyridin-1-yl)propan-1-amine], for which the Ki in test [1] is more than 1000 nM; in test [2], less than 100 nM.

On to `CNCC[C@H](c1cc(C)sc1C)N1CCc2ncccc21` [Example 42, (R)-3-(2,3-Dihydro-1H-pyrrolo[3,2-b]pyridin-1-yl)-3-(2,5-dimethylthiophen-3-yl)-N-methylpropan-1-amine], for which the Ki in test [1] is more than 1000 nM; in test [2], not below 3000 nM.

As for `CNCC[C@H](c1cccs1)N1CCc2ncc(OC)cc21` [Example 30, (R)-3-(6-Methoxy-2,3-dihydro-1H-pyrrolo[3,2-b]pyridin-1-yl)-N-methyl-3-(thiophen-2-yl)propan-1-amine], the results for the Ki in test [1] and in test [2] were more than 1000 nM and 100 to 500 nM, respectively.

`CNCC[C@H](c1cccs1)N1CC(C)(C)c2ncc(F)cc21` [Example 106, (R)-3-(6-fluoro-3,3-dimethyl-2,3-dihydro-1H-pyrrolo[3,2-b]pyridin-1-yl)-N-methyl-3-(thiophen-2-yl)propan-1-amine]: the results for the Ki in test [1] and in test [2] were more than 1000 nM and less than 100 nM, respectively.

On to `CNCC[C@@H](c1cccs1)N1CC(C)(C)c2ncc(F)cc21` [Example 105, (S)-3-(6-Fluoro-3,3-dimethyl-2,3-dihydro-1H-pyrrolo[3,2-b]pyridin-1-yl)-N-methyl-3-(thiophen-2-yl)propan-1-amine], for which the Ki is more than 1000 nM in test [1] and 500 to 3000 nM in test [2].

On to `CNCCC(c1cccs1)N1CCCc2ncccc21` (stereo not drawn) [Example 5, 3-(3,4-Dihydro-1,5-naphthyridin-1(2H)-yl)-N-methyl-3-(thiophen-2-yl)propan-1-amine], for which the values for the Ki in test [1] and in test [2] were more than 1000 nM and 100 to 500 nM, respectively.

In the case of `CNCC[C@@H](c1ccsc1)N1CCc2ncc(F)cc21` [Example 29, (S)-3-(6-Fluoro-2,3-dihydro-1H-pyrrolo[3,2-b]pyridin-1-yl)-N-methyl-3-(thiophen-3-yl)propan-1-amine], the Ki was in the range of 500 to 1000 nM in test [1] and 100 to 500 nM in test [2].

As to `CNCC[C@@H](c1ccsc1)N1CC(C)(C)c2nc(C)c(F)cc21` [Example 89, (S)-3-(6-Fluoro-3,3,5-trimethyl-2,3-dihydro-1H-pyrrolo[3,2-b]pyridin-1-yl)-N-methyl-3-(thiophen-3-yl)propan-1-amine], the Ki in test [1] and in test [2] was 100 to 500 nM throughout.

On to `CNCC[C@@H](c1cccs1)N1c2ccccc2C[C@H]1C` [Example 117, (S)—N-methyl-3-((R)-2-methylindolin-1-yl)-3-(thiophen-2-yl)propan-1-amine], for which the Ki was less than 100 nM in test [1] and not below 3000 nM in test [2].

Take `CNCC[C@H](c1ccsc1)N1CC(C)(C)c2ncccc21` [Example 24, (R)-3-(3,3-Dimethyl-2,3-dihydro-1H-pyrrolo[3,2-b]pyridin-1-yl)-N-methyl-3-(thiophen-3-yl)propan-1-amine]: the Ki in test [1] is more than 1000 nM; in test [2], 100 to 500 nM.

For `CN(C)CCC(c1cccs1)N1CCc2ncccc21` (stereo not drawn) [Example 15, 3-(2,3-Dihydro-1H-pyrrolo[3,2-b]pyridin-1-yl)-N,N-dimethyl-3-(thiophen-2-yl)propan-1-amine], the figures for the Ki in test [1] and in test [2] were more than 1000 nM and not below 3000 nM, respectively.

Consider `CNCCC(c1cccs1)N1CC(C)(C)c2c(C#N)cccc21` (stereo not drawn) [Example 100, 3,3-Dimethyl-1-(3-(methylamino)-1-(thiophen-2-yl)propyl)indoline-4-carbonitrile], for which the values for the Ki in test [1] and in test [2] were more than 1000 nM and less than 100 nM, respectively.

Take `CNCC[C@@H](c1ccsc1)N1CC(C)(C)c2ncc(F)cc21` [Example 88, (S)-3-(6-Fluoro-3,3-dimethyl-2,3-dihydro-1H-pyrrolo[3,2-b]pyridin-1-yl)-N-methyl-3-(thiophen-3-yl)propan-1-amine]: the Ki in test [1] was 500 to 1000 nM; in test [2], 100 to 500 nM.

Turning to `CNCC[C@@H](c1ccsc1)N1CCc2ncc(C3CC3)cc21` [Example 53, (S)-3-(6-Cyclopropyl-2,3-dihydro-1H-pyrrolo[3,2-b]pyridin-1-yl)-N-methyl-3-(thiophen-3-yl)propan-1-amine], the Ki in test [1] is more than 1000 nM; in test [2] it was 500 to 3000 nM.

For `CNCCC(c1cccs1)N1CCc2cc(C#N)ccc21` (stereo not drawn) [Example 96, 1-(3-(Methylamino)-1-(thiophen-2-yl)propyl)indoline-5-carbonitrile], the Ki lay within 500 to 1000 nM in test [1] and 500 to 3000 nM in test [2].

Regarding `CNCCC(c1cccs1)N1CC(C)(C)c2ncc(C#N)cc21` (stereo not drawn) [Example 97, 3,3-Dimethyl-1-(3-(methylamino)-1-(thiophen-2-yl)propyl)-2,3-dihydro-1H-pyrrolo[3,2-b]pyridine-6-carbonitrile], the values for the Ki in test [1] and in test [2] were more than 1000 nM and less than 100 nM, respectively.

Turning to `CNCC[C@H](c1cccs1)N1CC(C)(C)c2nc(OC)ccc21` [Example 114, (R)-3-(5-methoxy-3,3-dimethyl-2,3-dihydro-1H-pyrrolo[3,2-b]pyridin-1-yl)-N-methyl-3-(thiophen-2-yl)propan-1-amine], the Ki was more than 1000 nM in test [1] and 100 to 500 nM in test [2].

Regarding `CNCCC(c1cccs1)N1CC(C)(C)c2nc(C(F)(F)F)ccc21` (stereo not drawn) [Example 75, 3-(3,3-Dimethyl-5-(trif1uoromethyl)-2,3-dihydro-1H-pyrrolo[3,2-b]pyridin-1-yl)-N-methyl-3-(thiophen-2-yl)propan-1-amine], the Ki in test [1] is more than 1000 nM; in test [2], 100 to 500 nM.

Consider `CNCC[C@@H](c1sccc1Cl)N1CCc2ncccc21` [Example 37, (S)-3-(3-Chlorothiophen-2-yl)-3-(2,3-dihydro-1H-pyrrolo[3,2-b]pyridin-1-yl)-N-methylpropan-1-amine], for which the Ki in test [1] is 100 to 500 nM; in test [2], not below 3000 nM.

For the molecule `CNCC[C@@H](c1cccc(F)c1)N1CCc2ncccc21` [Example 82, (S)-3-(2,3-Dihydro-1H-pyrrolo[3,2-b]pyridin-1-yl)-3-(3-fluorophenyl)-N-methylpropan-1-amine], the Ki lay within 500 to 1000 nM in test [1] and 500 to 3000 nM in test [2].

As for `CNCCC(c1ccsc1)N1CCc2ccccc21` (racemic) [Example 78, 3-(Indolin-1-yl)-N-methyl-3-(thiophen-3-yl)propan-1-amine], the Ki is less than 100 nM in test [1] and not below 3000 nM in test [2].

Turning to `CNCC[C@@H](c1ccsc1)N1CC(C)(C)c2ncccc21` [Example 25, (S)-3-(3,3-Dimethyl-2,3-dihydro-1H-pyrrolo[3,2-b]pyridin-1-yl)-N-methyl-3-(thiophen-3-yl)propan-1-amine], the figures for the Ki in test [1] and in test [2] were 100 to 500 nM and 500 to 3000 nM, respectively.

`CNCCC(c1cccs1)N1CC(C)(C)c2nc(C)ccc21` (stereo not drawn) [Example 64, N-methyl-3-(thiophen-2-yl)-3-(3,3,5-trimethyl-2,3-dihydro-1H-pyrrolo[3,2-b]pyridin-1-yl)propan-1-amine]: the values for the Ki in test [1] and in test [2] were 100 to 500 nM and less than 100 nM, respectively.
